In ChEMBL document CHEMBL3808327, “Natural Products as Sources of New Drugs from 1981 to 2014” (J Nat Prod, 2016):

Molecular target: Serine/threonine-protein kinase B-raf (Homo sapiens, UniProt P15056, V600E)
Test: Inhibition of N-terminal his-tagged BRAF V600E mutant (448 to 723 residues) (unknown origin) expressed in Escherichia coli BL21(DE3) cells assessed as phosphorylation of biotinylated-MEK by AlphaScreen assay

Serine/threonine-protein kinase B-raf, sequence (P15056 2-766 V600E limits assumed): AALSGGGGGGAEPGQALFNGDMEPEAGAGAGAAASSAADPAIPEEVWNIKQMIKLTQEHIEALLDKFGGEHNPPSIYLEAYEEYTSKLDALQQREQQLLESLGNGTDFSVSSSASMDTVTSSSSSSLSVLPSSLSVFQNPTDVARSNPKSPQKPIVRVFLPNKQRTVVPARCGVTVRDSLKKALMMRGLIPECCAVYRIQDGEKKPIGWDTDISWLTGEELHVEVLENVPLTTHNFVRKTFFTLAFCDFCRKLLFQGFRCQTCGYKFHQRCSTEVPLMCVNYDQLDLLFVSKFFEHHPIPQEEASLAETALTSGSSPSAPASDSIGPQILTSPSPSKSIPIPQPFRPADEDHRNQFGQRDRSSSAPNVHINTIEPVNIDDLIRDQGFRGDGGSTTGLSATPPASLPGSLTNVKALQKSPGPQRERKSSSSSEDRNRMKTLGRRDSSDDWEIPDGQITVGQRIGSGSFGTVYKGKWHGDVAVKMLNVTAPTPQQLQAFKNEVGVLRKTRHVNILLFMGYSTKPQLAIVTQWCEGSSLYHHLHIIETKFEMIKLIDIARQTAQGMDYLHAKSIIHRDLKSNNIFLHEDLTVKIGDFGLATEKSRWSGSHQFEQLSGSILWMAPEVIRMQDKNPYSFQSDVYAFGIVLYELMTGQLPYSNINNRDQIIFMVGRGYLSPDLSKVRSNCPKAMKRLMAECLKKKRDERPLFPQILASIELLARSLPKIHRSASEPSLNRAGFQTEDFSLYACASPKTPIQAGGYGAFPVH

SMILES: c1ccc(Nc2c[nH]c3ncccc23)cc1
- IC50: > 100 µM
